# Results: US6489307B1, “Antisense compositions targeted to β1-adrenoceptor-specific mRNA and methods of use” (University of Florida, priority 1998, dated 2002)
# Experiments:
# [1] = tested on: preprorenin mRNA; experiment: RT-PCR and Southern blotting, renal cortex; type: in vivo, rat (SHR)
# Description: (§1) At different time points after the single injection of β1-AS-ODN or inverted ODN, rats were euthanized, and the renal cortex was dissected from the left kidneys, immediately dipped into RNA later tissue storage buffer (Ambion), and stored at −20° C. Total RNA was extracted with RNAwiz reagent (Ambion) and quantified by spectrophotometer. RNA samples from 4 to 5 rats from each time point were pooled. RNA (5 μg) was digested by DNase I and reverse-transcribed by Superscript reverse transcriptase (GIBCO BRL) at 42° C. for 50 min. and 1/20 of the reverse transcription (RT) product was used to run a polymerase chain reaction (PCR) for 20 cycles. PCR primers for β1-AR were 5′-[…]-3′ (SEQ ID NO:199) (forward) and 5′-[…]-3′ (SEQ ID NO:200) (reverse) and yielded products of 432 bp, which spanned the AUG start codon. Primers for preprorenin were 5′-[…]-3′ (SEQ ID NO:201) (forward) and 5′-[…]-3′ (SEQ ID NO:202) (reverse) and yielded products of 362 bp.
# (§2) Primers for GAPDH were 5′-[…]-3′ (SEQ ID NO:203) (forward) and 5′-[…]-3′ (SEQ ID NO:204) (reverse) and yielded products of 505 bp (Jo et al., 1996). RT-PCR products were subjected to Southern blotting, hybridized with psoralen-biotin-labeled cDNA probes, and detected with nonisotopic kits (Ambion). After the membranes had been exposed to x-ray films, the intensity of β1-AR and preprorenin mRNAs was quantified by densitometry and normalized with GAPDH mRNA levels. The studies were repeated at least twice.
# [2] = tested on: β1-AR mRNA; experiment: RT-PCR and Southern blotting, renal cortex; type: in vivo, rat (SHR); details: 0.5 mg/kg i.v., semiquantitative RT-PCR
# Description: as §1, §2
# [3] = tested on: SHRs; details: Zhang et al., 1999; without causing bradycardia; cited from earlier work
substance,measurement,setting,value
"5′-CCGCGCCCATGCCGA-3′ (phosphorothioate backbone, further chemistry not given here) [β1-AS-ODN, 15-mer antisense ODN targeted to the AUG start codon of rat β1-AR mRNA]",preprorenin mRNA level in renal cortex,[1]; 4 days after injection,62 % of control
same,preprorenin mRNA decrease,[1]; by day 18,completely reversed
same,level of steady-state β1-AR mRNA in renal cortex,[2],did not reduce
same,level of steady-state β1-AR mRNA in renal cortex,[2]; listed as AS-ODN,no reduction
same,maximum drop in blood pressure,[3],38 mmHg
